Legend:
[1] = system: MCF-7 (breast cancer) cells; conditions: for IC50: read-out: IC50, MCF-7 cell viability, MTT, dose-response 1, 2.5, 5, 10, 20 and 25 µM, 24 h, triplicates, n = 3
Method: (§1) MCF-7 cells and SH-SY5Y cells were maintained in a culture flask (25 cm^2) with full growth medium DMEM supplemented with 10% FBS and penicillin and streptomycin (final concentration of 100 U/mL and 0.1 mg/mL, respectively) were kept in an incubator at 37 °C and 5% CO2. In the culture flask, the medium was changed at least twice a week, while trypsinization was done at least once a week. Trypsinization was made when there was more than 80% confluence of the monolayer and cell passages used were lower than 35.
(§2) For cytotoxicity evaluation, MCF-7 cells were seeded in 48-well plates at a density of 25 × 10^4 cells per well in a final volume of 250 µL of culture medium. Cells were given 24 h to attach before they were incubated with the compounds in the study. […] H2O and DMSO were used in control, with the volume added being the one used for each concentration.
The MTT assay can be used to assess the cell’s metabolic activity. MTT, a water-soluble compound, is reduced by the complex II of the mitochondrial respiratory chain to a water-insoluble blue formazan product. Only viable cells can metabolize MTT, so the metabolic activity is proportional to the quantity of formazans produced). After a 24 h incubation with the compounds in the study at 37 °C with 5% CO2, the cells were retrieved from the incubator and the medium was discarded. A previously warmed medium with MTT (0.5 mg/mL) was added (200 μL per well) and cells were maintained for 3 h at 37 °C and 5% CO2. Then the medium was aspirated again and DMSO (200 μL) was added to cause cellular lysis and solubilize the formazan crystals. The complete dissolution of the crystals was obtained by putting the plates on a shaking platform for 15 min, protected from light. The absorbance was read at 570 nm in a microplate reader (BioTeK Model Synergy HT, Winooski, VT, USA). Results were expressed as percentage of control cells.

[2] = cellular uptake kinetics; cited from earlier work
Description: In view of the above, we decided to explore how the coupling of Tacrine with the cell-penetrating peptide (CPP) MAP might enhance its anti-cancer effect. CPPs are considered versatile carriers due to their unique ability to transport a wide range of molecules such as proteins, nucleic acids, contrast agents, drugs, and promote their intracellular delivery with limited toxicity. […] MAP (named after “model amphipathic peptide”) is an artificial ...

MCF-7 cells [3] = assay: Cell count analysis (Lionheart FX), MCF-7 cells; type: cell-based, human; conditions: 24 h incubation, n = 1
Method: as §2
(§3) After the treatments, cell morphology and growth were assessed by the contrast phase microscope Lionheart FX (Biotech, VT, USA) with the use of Gen5 software (Biotech, USA). The cell count of MCF-7 cells was assessed by Lionheart FX (Biotech, USA) using Gen5 software (Biotech, USA).

MCF-7 cells [4] = assay: Cell morphology visualization (phase contrast, Lionheart FX), MCF-7 cells; type: cell-based, human; conditions: 24 h incubation; Tacrine all concentrations tested; MAP 5, 10, 20 and 25 μM; conjugate higher concentrations
Method: as §2, §3

SH-SY5Y cells = assay: Cell count analysis (Lionheart FX), SH-SY5Y cells; type: cell-based, human; conditions: SH-SY5Y, 1, 2.5, 5 and 10 µM, 24 h incubation, n = 1
[5] = molecular target: T1, acetylcholinesterase (AChE from the electric eel) (Electrophorus electricus, UniProt O42275); assay: AChE in vitro inhibition assay (Ellman's method); type: biochemical
T1 construct: purchased Sigma-Aldrich
Method: Apart from its main function, this enzyme can efficiently hydrolyze a sulfur analogue of acetylcholine–acetylthiocholine. The products of this reaction are acetate and thiocholine, with the latter reacting with the highly reactive DNTB ion, generating a 5-thio-2-nitrobenzoate anion that has a yellow color and it can be detected by measuring the increase of absorbance at 412 nm. 3 mL of assay medium (phosphate buffer pH 7.4 + 150 µL DNTB 0.01 M + 30 µL AChE 2.0 units/mL) was put into cuvettes. The positive control was incubated at 37 °C for 15 min and then was added 150 µL of substrate (acetylthiocholine 0.01 M). […] After the addition of substrate to the assay medium, it was measured the increase in absorbance at 412 nm for 30 s intervals for 5 min (300 s) at 37 °C.
The absorbance was measured in the JENWAY 6300 Spectrophotometer. All conditions were made in triplicates. The value of the initial absorbance was subtracted to the value of the absorbance at 300 s and that was considered as the biological activity.

[6] = system: SH-SY5Y (neuroblastoma) cells; assay: MTT reduction assay, SH-SY5Y cells; type: cell-based, human
Method: as §1
Cells were given 24 h to attach before they were incubated with the compounds in the study. The cells were treated with different concentrations (1, 2.5, 5, and 10 µM) of Tacrine, MAP, and Tacrine-MAP for 24 h with a final volume per well of 200 μL of complete medium. H2O and DMSO were used in control, with the volume added being the one used for each concentration. After the period of incubation, the MTT reduction was performed in both cell lines.
The MTT assay can be used to assess the cell’s metabolic activity. […] Only viable cells can metabolize MTT, so the metabolic activity is proportional to the quantity of formazans produced). […] The absorbance was read at 570 nm in a microplate reader (BioTeK Model Synergy HT, Winooski, VT, USA). Results were expressed as percentage of control cells.

MCF-7 cells [7] = assay: Analysis of drug interactions (Chou-Talalay, CompuSyn); type: cell-based, human; conditions: n = 3
Method: To quantify the interaction of Tacrine and MAP in the conjugate, the dose-effect curves were estimated by the unified theory, introduced by Chou and Talalay using CompuSyn software (ComboSyn, Inc., New York, NY, USA). The dose was plotted on the y-axis as a function of effect level (Fa) on the x-axis to assess the drugs’ behavior. Experiments were conducted in triplicate (n = 3) with three replications.

[8] = system: breast tumor cells (MCF-7); conditions: cited from earlier work
Description: Drug combination is a strategy increasingly used in oncology because it allows taking advantage of the maximum therapeutic effect of two or more drugs, by combining different mechanisms of action, while reducing required doses and, consequently, side effects. Drug repurposing is another strategy that allows overcoming the disadvantages of the traditional development of novel anticancer drugs, by searching for new therapeutic uses for drugs already approved for other indications. This allows the reduction of costs related to the development of new drugs while promoting a faster route towards th ...

[9] = summary statement of the abstract

T1 sequence (O42275 24-633): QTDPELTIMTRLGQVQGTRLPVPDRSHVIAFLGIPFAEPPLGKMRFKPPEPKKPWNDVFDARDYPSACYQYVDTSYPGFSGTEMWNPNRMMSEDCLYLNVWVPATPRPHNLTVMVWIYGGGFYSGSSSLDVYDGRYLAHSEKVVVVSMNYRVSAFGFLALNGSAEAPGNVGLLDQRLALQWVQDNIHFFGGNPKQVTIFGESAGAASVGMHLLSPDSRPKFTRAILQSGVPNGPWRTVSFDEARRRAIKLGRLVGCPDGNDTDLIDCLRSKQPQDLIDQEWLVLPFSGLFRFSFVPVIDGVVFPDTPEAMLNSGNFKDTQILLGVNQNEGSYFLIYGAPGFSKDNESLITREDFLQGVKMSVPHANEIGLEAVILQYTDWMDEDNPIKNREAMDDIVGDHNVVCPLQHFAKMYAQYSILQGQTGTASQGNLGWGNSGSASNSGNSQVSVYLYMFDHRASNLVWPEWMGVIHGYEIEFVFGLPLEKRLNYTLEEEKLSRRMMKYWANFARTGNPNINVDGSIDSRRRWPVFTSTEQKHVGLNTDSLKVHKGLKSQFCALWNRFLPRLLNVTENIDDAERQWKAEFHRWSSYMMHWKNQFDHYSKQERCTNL

Structure (SMILES)	IC50 [1] [µM]	Cellular uptake among several CPP (in words) [2]	Cell count (in words) (MCF-7 cells [3]; MCF-7, 1, 2.5, 5 and 10 µM)	Cell count (in words) (MCF-7 cells [3]; MCF-7, 20 and 25 µM)	Morphological changes of MCF-7 cells vs control (in words) (MCF-7 cells [4])	Toxicity to MCF-7 cells (in words) [1, 9]	Cell count (in words) (SH-SY5Y cells)	IC50 [5] [µM]	Toxicity to SH-SY5Y cells (in words) [6, 9]	Drug interaction of MAP and Tacrine in decreasing cell viability (MCF-7 cells [7]; higher doses)	Drug interaction of MAP and Tacrine in decreasing cell viability (MCF-7 cells [7]; lower doses of drug and peptide)	MTT reduction compared to control (in words) ([1]; MCF-7, 1, 2.5, 5 and 10 µM, 24 h incubation)	Activity on MCF-7 cells (in words) ([8]; 50 µM, alone)	Cytotoxicity against MCF-7 cells in combination with 5-FU (in words) ([8]; combination with 5-Fluorouracil)	MTT reduction compared to control (in words) ([6]; SH-SY5Y, 1, 2.5, 5 and 10 µM, 24 h incubation)
CC(C)C[C@H](NC(=O)[C@H](C)NC(=O)[C@H](CCCCN)NC(=O)[C@H](CC(C)C)NC(=O)[C@H](C)NC(=O)[C@H](CC(C)C)NC(=O)[C@H](CCCCN)NC(=O)[C@H](CC(C)C)NC(=O)[C@H](C)NC(=O)[C@H](CC(C)C)NC(=O)[C@@H](N)CCCCN)C(=O)N[C@@H](CCCCN)C(=O)N[C@@H](C)C(=O)N[C@@H](C)C(=O)N[C@@H](CC(C)C)C(=O)N[C@@H](CCCCN)C(=O)N[C@@H](CC(C)C)C(=O)N[C@@H](C)C(N)=O [MAP]	2.72	fastest cellular uptake	–	–	–	–	–	–	–	–	–	–	–	–	–
CC(C)C[C@H](NC(=O)[C@H](C)NC(=O)[C@H](CCCCN)NC(=O)[C@H](CC(C)C)NC(=O)[C@H](C)NC(=O)[C@H](CC(C)C)NC(=O)[C@H](CCCCN)NC(=O)[C@H](CC(C)C)NC(=O)[C@H](C)NC(=O)[C@H](CC(C)C)NC(=O)[C@H](CCCCN)NC(=O)[C@@H](N)Cc1cn(CC(=O)Nc2c3c(nc4ccccc24)CCCC3)nn1)C(=O)N[C@@H](CCCCN)C(=O)N[C@@H](C)C(=O)N[C@@H](C)C(=O)N[C@@H](CC(C)C)C(=O)N[C@@H](CCCCN)C(=O)N[C@@H](CC(C)C)C(=O)N[C@@H](C)C(N)=O [MAP-Tacrine conjugate]	2.73	–	significantly decreased cell count	severe drop in cell count	cell damage observed was similar to that caused by MAP alone	highly toxic	significantly decreased cell count	6.07	highly toxic	additive effect	synergistic effect	–	–	–	–
Nc1c2c(nc3ccccc13)CCCC2 [Tacrine]	–	–	did not affect the number of cells in culture	no significant effects	No significant differences in cell morphology	–	did not affect the number of cells in culture	–	–	–	–	no significant differences	antiproliferative activity	increased the cytotoxicity	no significant differences
